target: DNA-PK (Homo sapiens, UniProt P78527); assay: DNA-PK inhibition assay (radiometric, 33P-ATP); assay type: biochemical; conditions: 100 μM ATP, competitive tight-binding fit
Procedure, shortened: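 33P transfer from 100 µM ATP to a DNA-PK peptide (0.8 mg/mL) is measured after 45 min, using about 6 nM enzyme activated by 10 µg/mL sheared dsDNA (HEPES pH 7.5, MgCl2, DTT). Filter-bound counts fitted to a competitive tight-binding inhibition model give Ki.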

| Ki [µM] | SMILES |
| --- | --- |
| < 0.03 | CNC(=O)c1ccnc2c([C@H](C)CNc3cc(-c4cnc(OC)c(OC)c4)ncn3)ccc(F)c12 [Compound 906] |
| < 0.03 | CNC(=O)c1ccnc2c([C@H](C)CNc3cc(-c4ccc(F)nc4)ncn3)ccc(F)c12 [Compound 907] |
| < 0.03 | CNC(=O)c1ccnc2c([C@H](C)CNc3cc(-c4ccc(OC)nc4)ncn3)ccc(F)c12 [Compound 908] |
| < 0.03 | CNC(=O)c1ccnc2c([C@H](C)CNc3cc(-c4ccc(C#N)nc4)ncn3)ccc(F)c12 [Compound 909] |
| < 0.03 | CNC(=O)c1ccnc2c([C@H](C)CNc3cc(-c4cnc(OC)c(N)c4)ncn3)ccc(F)c12 [Compound 910] |
| < 0.03 | CNC(=O)c1ccnc2c([C@H](C)CNc3cc(-c4ccnc(C5CC5)c4)ncn3)cccc12 [Compound 911] |
| < 0.03 | CNC(=O)c1ccnc2c([C@H](C)CNc3cc(-c4cncc(N5CCOCC5)c4)ncn3)cccc12 [Compound 912] |
| < 0.03 | CNC(=O)c1ccnc2c([C@H](C)CNc3cc(-c4ccnc(C5CCC5)c4)ncn3)cccc12 [Compound 913] |
| < 0.03 | CNC(=O)c1ccnc2c([C@H](C)CNc3cc(-c4ccnc(C5CC5)c4)ncn3)ccc(F)c12 [Compound 914] |
| < 0.03 | CNC(=O)c1ccnc2c([C@H](C)CNc3cc(-c4cncc(N5CCOCC5)c4)ncn3)ccc(F)c12 [Compound 915] |
| < 0.03 | CNC(=O)c1ccnc2c([C@H](C)CNc3cc(-c4cnc(CO)c(OC)c4)ncn3)ccc(F)c12 [Compound 916] |
| < 0.03 | CNC(=O)c1c(F)cnc2c([C@H](C)CNc3cc(-c4ccnc(C5CC5)c4)ncn3)cccc12 [Compound 917] |
| < 0.03 | CNC(=O)c1c(F)cnc2c([C@H](C)CNc3cc(-c4cnc(C#N)c(OC)c4)ncn3)cccc12 [Compound 918] |
| < 0.03 | CNC(=O)c1c(F)cnc2c([C@H](C)CNc3cc(-c4ccnc(C5CCC5)c4)ncn3)cccc12 [Compound 919] |
| < 0.03 | CNC(=O)c1c(F)cnc2c([C@H](C)CNc3cc(-c4cnc(CO)c(OC)c4)ncn3)cccc12 [Compound 920] |
| < 0.03 | CNC(=O)c1c(F)cnc2c([C@H](C)CNc3cc(-c4ccc(NC5CC5)nc4)ncn3)cccc12 [Compound 921] |
| < 0.03 | CCNc1ccc(-c2cc(NC[C@@H](C)c3ccc(F)c4c(C(=O)NC)ccnc34)ncn2)cn1 [Compound 922] |
| < 0.03 | CNC(=O)c1ccnc2c([C@H](C)CNc3cc(-c4cnc(C#N)c(OC)c4)ncn3)ccc(F)c12 [Compound 923] |
| < 0.03 | CNC(=O)c1ccnc2c([C@H](C)CNc3cc(-c4cnc(C#N)c(OC)c4)ncn3)cccc12 [Compound 924] |
| < 0.03 | CNC(=O)c1ccnc2c([C@H](C)CNc3cc(-c4ccc(C(O)C(C)C)nc4)ncn3)cccc12 (some centres unmarked) [Compound 925] |
| < 0.03 | CNC(=O)c1ccnc2c([C@H](C)CNc3cc(-c4ccc(C(O)C(C)C)nc4)ncn3)ccc(F)c12 (some centres unmarked) [Compound 926] |
| < 0.03 | CNC(=O)c1c(F)cnc2c([C@H](C)CNc3cc(-c4ccc(C(O)C(C)C)nc4)ncn3)cccc12 (some centres unmarked) [Compound 927] |
| < 0.03 | CNC(=O)c1ccnc2c([C@H](C)CNc3cc(-c4cnc(C(C)(C)OC)nc4)ncn3)cccc12 [Compound 928] |
| < 0.03 | CNC(=O)c1ccnc2c([C@H](C)CNc3cc(-c4cnc(C(C)(C)OC)nc4)ncn3)ccc(F)c12 [Compound 929] |

| Ki [µM] | SMILES |
| --- | --- |
| < 0.03 | CNC(=O)c1c(F)cnc2c([C@H](C)CNc3cc(-c4cnc(C(C)(C)OC)nc4)ncn3)cccc12 [Compound 930] |
| < 0.03 | CCNc1ncc(-c2cc(NC[C@@H](C)c3ccc(F)c4c(C(=O)NC)ccnc34)ncn2)cn1 [Compound 931] |
| < 0.03 | CCOc1ccc(-c2cc(NC[C@@H](C)c3cccc4c(C(=O)NC)c(F)cnc34)ncn2)cn1 [Compound 932] |
| < 0.03 | CCOc1ccc(-c2cc(NC[C@@H](C)c3cccc4c(C(=O)NC)ccnc34)ncn2)cn1 [Compound 933] |
| < 0.03 | CCOc1ccc(-c2cc(NC[C@@H](C)c3ccc(F)c4c(C(=O)NC)ccnc34)ncn2)cn1 [Compound 934] |
| < 0.03 | CNC(=O)c1ccnc2c([C@H](C)CNc3cc(-c4cnc5c(c4)OCCO5)ncn3)cccc12 [Compound 935] |
| < 0.03 | CNC(=O)c1ccnc2c([C@H](C)CNc3cc(-c4cnc5c(c4)OCCO5)ncn3)ccc(F)c12 [Compound 936] |
| < 0.03 | CNC(=O)c1c(F)cnc2c([C@H](C)CNc3cc(-c4cnc5c(c4)OCCO5)ncn3)cccc12 [Compound 937] |
| < 0.03 | CNC(=O)c1c(F)cnc2c([C@H](C)CNc3cc(-c4cnc(OC(C)C)nc4)ncn3)cccc12 [Compound 938] |
| < 0.03 | CNC(=O)c1ccnc2c([C@H](C)CNc3cc(-c4ccc(C5(N)CC5)nc4)ncn3)cccc12 [Compound 939] |
| < 0.03 | CNC(=O)c1ccnc2c([C@H](C)CNc3cc(-c4ccc(C5(N)CC5)nc4)ncn3)ccc(F)c12 [Compound 940] |
| < 0.03 | CNC(=O)c1c(F)cnc2c([C@H](C)CNc3cc(-c4ccc(C5(N)CC5)nc4)ncn3)cccc12 [Compound 941] |
| < 0.03 | CCNc1ncc(-c2cc(NC[C@@H](C)c3cccc4c(C(=O)NC)ccnc34)ncn2)cn1 [Compound 942] |
| < 0.03 | CNC(=O)c1ccnc2c([C@H](C)CNc3cc(-c4ccc(NC5CC5)nc4)ncn3)ccc(F)c12 [Compound 943] |
| < 0.03 | CNC(=O)c1ccnc2c([C@H](C)CNc3cc(-c4cnc(OC)c(COC)c4)ncn3)cccc12 [Compound 944] |
| < 0.03 | CNC(=O)c1ccnc2c([C@H](C)CNc3cc(-c4cnc(OC)c(C)c4)ncn3)cccc12 [Compound 945] |
| < 0.03 | CNC(=O)c1ccnc2c([C@H](C)CNc3cc(-c4cnc(N5CCOCC5)c(C#N)c4)ncn3)cccc12 [Compound 946] |
| < 0.03 | CNC(=O)c1ccnc2c([C@H](C)CNc3cc(-c4cnc(OC(C)C)c(C)c4)ncn3)cccc12 [Compound 947] |
| < 0.03 | CNC(=O)c1ccnc2c([C@H](C)CNc3cc(-c4cnc(N)c(C)c4)ncn3)cccc12 [Compound 948] |
| < 0.03 | CNC(=O)c1ccnc2c([C@H](C)CNc3cc(-c4cnc(OC)c(Cl)c4)ncn3)cccc12 [Compound 949] |
| < 0.03 | CCOc1ncc(-c2cc(NC[C@@H](C)c3cccc4c(C(=O)NC)ccnc34)ncn2)cc1C [Compound 950] |
| < 0.03 | CNC(=O)c1ccnc2c([C@H](C)CNc3cc(-c4cnc(F)c(C)c4)ncn3)cccc12 [Compound 951] |
| < 0.03 | CNC(=O)c1ccnc2c([C@H](C)CNc3cc(-c4cnc5c(c4)COC5)ncn3)cccc12 [Compound 952] |
| < 0.03 | CCc1cc(-c2cc(NC[C@@H](C)c3cccc4c(C(=O)NC)ccnc34)ncn2)cc(CC)n1 [Compound 953] |

| Ki [µM] | SMILES |
| --- | --- |
| < 0.03 | CNC(=O)c1ccnc2c([C@H](C)CNc3cc(-c4cnc5c(c4)CCN5)ncn3)cccc12 [Compound 954] |
| < 0.03 | CNC(=O)c1ccnc2c([C@H](C)CNc3cc(-c4cnc(NC)c(C#N)c4)ncn3)cccc12 [Compound 955] |
| < 0.03 | CNC(=O)c1ccnc2c([C@H](C)CNc3cc(-c4cncc(CO)c4)ncn3)cccc12 [Compound 956] |
| < 0.03 | CNC(=O)c1ccnc2c([C@H](C)CNc3cc(-c4cnc(C(F)(F)F)nc4)ncn3)cccc12 [Compound 957] |
| < 0.03 | CNC(=O)c1ccnc2c([C@H](C)CNc3cc(-c4ccc(-c5nnnn5C)nc4)ncn3)cccc12 [Compound 958] |
| < 0.03 | CNC(=O)c1ccnc2c([C@H](C)CNc3cc(-c4ccc(OC(C)C)nc4)ncn3)cccc12 [Compound 959] |
| < 0.03 | CNC(=O)c1ccnc2c([C@H](C)CNc3cc(-c4cncc(-c5nnco5)c4)ncn3)cccc12 [Compound 960] |
| < 0.03 | CNC(=O)c1ccnc2c([C@H](C)CNc3cc(-c4cnc(NC)c(C)c4)ncn3)cccc12 [Compound 961] |
| < 0.03 | CCOc1cc(-c2cc(NC[C@@H](C)c3cccc4c(C(=O)NC)ccnc34)ncn2)ccn1 [Compound 962] |
| < 0.03 | CNC(=O)c1c(F)cnc2c([C@H](C)CNc3cc(-c4cncc(C#N)c4)ncn3)cccc12 [Compound 963] |
| < 0.03 | CNC(=O)c1c(F)cnc2c([C@H](C)CNc3cc(-c4cnc5c(c4)COC5)ncn3)cccc12 [Compound 966] |
| < 0.03 | CNC(=O)c1ccnc2c([C@H](C)CNc3cc(-c4cnc5c(c4)COC5)ncn3)ccc(F)c12 [Compound 967] |
| < 0.03 | CNC(=O)c1c(F)cnc2c([C@H](C)CNc3cc(-c4cnnc(C)c4)ncn3)cccc12 [Compound 968] |
| < 0.03 | CNC(=O)c1ccnc2c([C@H](C)CNc3cc(-c4cnnc(C)c4)ncn3)ccc(F)c12 [Compound 969] |
| < 0.03 | CNC(=O)c1ccnc2c([C@H](C)CNc3cc(-c4cnc(N)c(CO)c4)ncn3)cccc12 [Compound 970] |
| < 0.03 | CNC(=O)c1ncnc2c([C@H](C)CNc3cc(-c4ccc(C)nc4)ncn3)cccc12 [Compound 971, (S)—N-methyl-8-(1-((6-(6-methylpyridin-3-yl)pyrimidin-4-yl)amino)propan-2-yl)quinazoline-4-carboxamide] |
| < 0.03 | CNC(=O)c1ccnc2c([C@H](C)CNc3cc(-c4cnc(C)c(F)c4)ncn3)cccc12 [Compound 972] |
| < 0.03 | CNC(=O)c1c(F)cnc2c([C@H](C)CNc3cc(-c4cnc(C)c(F)c4)ncn3)cccc12 [Compound 973] |
| < 0.03 | CNC(=O)c1ccnc2c([C@H](C)CNc3cc(-c4cnc(C)c(F)c4)ncn3)ccc(F)c12 [Compound 974] |
| < 0.03 | CNC(=O)c1ccnc2c([C@H](C)CNc3cc(-c4ccc(NCC(F)F)nc4)ncn3)cccc12 [Compound 975] |
| < 0.03 | CNC(=O)c1ncnc2c([C@H](C)CNc3cc(-c4cnc(C)nc4)ncn3)cccc12 [Compound 976] |
| < 0.03 | CCNc1ncc(-c2cc(NC[C@@H](C)c3cccc4c(C(=O)NC)c(F)cnc34)ncn2)cn1 [Compound 978] |
| < 0.03 | CCNc1ccc(-c2cc(NC[C@@H](C)c3cccc4c(C(=O)NC)c(F)cnc34)ncn2)cn1 [Compound 979] |
